In one assay the test system is CD69. The assay is described as follows: Induction of CD69 in human whole blood. It is filed as cell-based. The settings on record: 17 hrs incubation, CD69 surface staining, 100% set to 1 uM of resiquimod, average where assay repeated, read-out: hWB CD69 EC50. As to the method: Induction of Type I Interferon Genes (MX-1) and CD69 in Human Blood
The induction of Type I interferon (IFN) MX-1 genes and the B-cell activation marker CD69 are downstream events that occur upon activation of the TLR7 pathway. The following is a human whole blood assay that measures their induction in response to a TLR7 agonist.
Heparinized human whole blood was harvested from human subjects and treated with test TLR7 agonist compounds at 1 mM. The blood was diluted with RPMI 1640 media and Echo was used to predot 10 nL per well giving a final concentration of 1 uM (10 nL in 10 uL of blood). After mixing on a shaker for 30 sec, the plates were covered and placed in a 37° C. chamber for o/n=17 hrs. Fixing/lysis buffer was prepared (5×→1× in H2O, warm at 37° C.; Cat #BD 558049) and kept the perm buffer (on ice) for later use.
For surface markers staining (CD69): prepared surface Abs: 0.045 ul hCD14-FITC (ThermoFisher Cat #MHCD1401)+0.6 ul hCD19-ef450 (ThermoFisher Cat #48-0198-42)+1.5 ul hCD69-PE (cat #BD555531)+0.855 ul FACS buffer. Added 3 ul/well, spin 1000 rpm for 1 min and mixed on shaker for 30 sec, put on ice for 30 min. Stop stimulation after 30 minutes with 70 uL of prewarmed 1× fix/lysis buffer and use Feliex mate to resuspend (15 times, change tips for each plate) and incubate at 37 C for 10 minutes.
Centrifuge at 2000 rpm for 5 minutes aspirate with HCS plate washer, mix on shaker for 30 sec and then wash with 70 uL in dPBS and pelleted 2×s (2000 rpm for 5 min) and 50 ul wash in FACS buffer pelleted 1×s (2000 rpm for 5 min). Mix on shaker for 30 sec. For Intracellular markers staining (MX-1): Add 50 ul of BD Perm buffer III and mix on shaker for 30 sec. Incubate on ice for 30 minutes (in the dark). Wash with 50 uL of FACS buffer 2× (spin @2300 rpm×5 min after perm) followed by mixing on shaker for 30 sec. Resuspended in 20 ul of FACS buffer containing MX1 antibody ( )(4812)-Alexa 647: Novus Biologicals #NBP2-43704AF647) 20 ul FACS bf+0.8 ul hIgG+0.04 ul MX-1. Spin 1000 rpm for 1 min, mix on shaker for 30 se and the samples were incubated at RT in the dark for 45 minutes followed by washing 2×FACS buffer (spin @2300 rpm×5 min after perm). Resuspend 20 ul (35 uL total per well) of FACS buffer and cover with foil and place in 4° C. to read the following day. Plates were read on iQuePlus. The results were loaded into toolset and […] curves are generated in curve master. The y-axis 100% is set to 1 uM of resiquimod.

A further assay has as its target T1, human TLR7 (Homo sapiens, UniProt Q9NYK1).
T1 construct: host or cells: HEK-Blue TLR7 cells (engineered human embryonic kidney cells)
T1 sequence (Q9NYK1 27-1049): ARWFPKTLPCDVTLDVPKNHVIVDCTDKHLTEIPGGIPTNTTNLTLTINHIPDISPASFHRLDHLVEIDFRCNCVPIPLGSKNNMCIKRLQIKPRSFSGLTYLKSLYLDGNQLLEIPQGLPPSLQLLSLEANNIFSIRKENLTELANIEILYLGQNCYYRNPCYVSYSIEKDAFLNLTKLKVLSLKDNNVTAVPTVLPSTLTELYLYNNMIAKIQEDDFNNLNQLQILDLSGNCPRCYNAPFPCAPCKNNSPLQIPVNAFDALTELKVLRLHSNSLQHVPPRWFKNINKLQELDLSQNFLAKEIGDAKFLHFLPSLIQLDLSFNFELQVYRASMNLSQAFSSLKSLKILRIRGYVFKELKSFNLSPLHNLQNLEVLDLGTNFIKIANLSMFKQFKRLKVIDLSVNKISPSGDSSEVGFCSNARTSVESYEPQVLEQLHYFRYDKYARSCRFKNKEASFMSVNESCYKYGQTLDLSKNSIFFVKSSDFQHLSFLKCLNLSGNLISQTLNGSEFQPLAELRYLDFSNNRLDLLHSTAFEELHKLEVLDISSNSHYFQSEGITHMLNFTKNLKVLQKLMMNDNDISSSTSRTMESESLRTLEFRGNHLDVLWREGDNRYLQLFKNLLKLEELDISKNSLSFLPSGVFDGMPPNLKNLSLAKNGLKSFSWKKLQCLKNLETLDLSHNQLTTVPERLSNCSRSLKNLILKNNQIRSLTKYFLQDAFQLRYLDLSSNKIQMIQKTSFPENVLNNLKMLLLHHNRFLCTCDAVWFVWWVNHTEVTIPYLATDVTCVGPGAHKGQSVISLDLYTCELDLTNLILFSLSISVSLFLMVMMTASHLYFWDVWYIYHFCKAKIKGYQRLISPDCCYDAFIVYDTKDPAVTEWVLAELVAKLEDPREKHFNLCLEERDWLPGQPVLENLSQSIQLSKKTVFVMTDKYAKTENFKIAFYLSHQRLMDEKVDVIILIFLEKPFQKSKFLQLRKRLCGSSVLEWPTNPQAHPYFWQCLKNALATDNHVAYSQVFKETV
As to the kind of experiment: Human TLR7 agonist activity reporter assay (HEK-Blue TLR7 cells, SEAP reporter). The settings on record: human TLR7 (hTLR7) reporter assay, SEAP readout after 18 h, average where assay repeated, read-out: TLR7 Agonism EC50. It counts as cell-based. As to the method: Human TLR7 Agonist Activity Assay
This procedure describes a method for assaying human TLR7 (hTLR7) agonist activity of the compounds disclosed in this specification.
HEK-Blue™ TLR7 cells were added to each well of a 384-well tissue-culture plate (15,000 cells per well) and incubated 16-18 h at 37° C., 5% CO2. Compounds (100 nl) were dispensed into wells containing the HEK-Blue™ TLR cells and the treated cells were incubated at 37° C., 5% CO2. After 18 h treatment ten microliters of freshly-prepared Quanti-Blue™ reagent (Invivogen) was added to each well, incubated for 30 min (37° C., 5% CO2) and SEAP levels measured using an Envision plate reader (OD=620 nm).
For orientation: A reporter such as luciferase makes a cellular process visible.

In the case of `Nc1nc(NCC2CC3(CC3)C2)c2c(cnn2Cc2ccc(C(=O)N3CCN(CCO)CC3)c3cccnc23)n1` [Compound 115, 2-{4-[8-({5-amino-7-[({spiro[2.3]hexan-5-yl}methyl)amino]-1H-pyrazolo[4,3-d]pyrimidin-1-yl}methyl)quinoline-5-carbonyl]piperazin-1-yl}ethan-1-ol], the EC50 (as a rule, the midpoint of the concentration-response curve) with CD69 came to 756 nM; at human TLR7, 468 nM.

Turning to `CCC[C@@H](CCO)Nc1nc(N)nc2cnn(Cc3ccc(C(=O)N4C[C@H]5C[C@@H]4CN5C)c4cccnc34)c12` [Compound 126, (3S)-3-{[5-amino-1-({5-[(1R,4R)-5-methyl-2,5-diazabicyclo[2.2.1]heptane-2-carbonyl]quinolin-8-yl}methyl)-1H-pyrazolo[4,3-d]pyrimidin-7-yl]amino}hexan-1-ol], the figures for the concentration giving a half-maximal response (EC50) with CD69 and at human TLR7 were 49.7 nM and 191 nM, respectively.

For `CCC[C@@H](CCO)Nc1nc(N)nc2c(C)nn(Cc3ccc(C(=O)NC4CCN(C)CC4)c4cccnc34)c12` [Compound 123, 8-[(5-amino-7-{[(3S)-1-hydroxyhexan-3-yl]amino}-3-methyl-1H-pyrazolo[4,3-d]pyrimidin-1-yl)methyl]-N-(1-methylpiperidin-4-yl)quinoline-5-carboxamide], the EC50 is 661 nM with CD69 and 732 nM at human TLR7.

In the case of `CCC[C@@H](CCO)Nc1nc(N)nc2cnn(Cc3ccc(CN4CCN(CCO)CC4)c4cccnc34)c12` [Compound 139, (3S)-3-({5-amino-1-[(5-{[4-(2-hydroxyethyl)piperazin-1-yl]methyl}quinolin-8-yl)methyl]-1H-pyrazolo[4,3-d]pyrimidin-7-yl}amino)hexan-1-ol], the 50% effective concentration (EC50) with CD69 turned out to be 16.2 nM; on human TLR7 it was 5.5 nM.

As for `CCC[C@@H](CCO)Nc1nc(N)nc2cnn(Cc3ccc(C(=O)N4CCC(CCO)CC4)c4cccnc34)c12` [Compound 134, (3S)-3-{[5-amino-1-({5-[4-(2-hydroxyethyl)piperidine-1-carbonyl]quinolin-8-yl}methyl)-1H-pyrazolo[4,3-d]pyrimidin-7-yl]amino}hexan-1-ol], the EC50 was found to be 194 nM in the assay with CD69 and 35.4 nM at human TLR7.

Take `Cc1cc(CNc2nc(N)nc3cnn(Cc4ccc(C(=O)NC5CCN(C)CC5)c5cccnc45)c23)no1` [Compound 122, 8-[(5-amino-7-{[(5-methyl-1,2-oxazol-3-yl)methyl]amino}-1H-pyrazolo[4,3-d]pyrimidin-1-yl)methyl]-N-(1-methylpiperidin-4-yl)quinoline-5-carboxamide]: the EC50 in the assay on CD69 was determined as 54 nM; at human TLR7, 309 nM.

Regarding `CCC[C@@H](CCO)Nc1nc(N)nc2cnn(Cc3ccc(C(=O)N4CC(OC)C4)c4cccnc34)c12` [Compound 108, (3S)-3-[(5-amino-1-{[5-(3-methoxyazetidine-1-carbonyl)quinolin-8-yl]methyl}-1H-pyrazolo[4,3-d]pyrimidin-7-yl)amino]hexan-1-ol], the EC50 in the assay on CD69 was 110 nM; on human TLR7, 67.6 nM.

`CCC[C@@H](CCO)Nc1nc(N)nc2cnn(Cc3ccc(C(=O)NC4CCN(C)CC4)c4cccnc34)c12` [Compound 121, 8-[(5-amino-7-{[(3S)-1-hydroxyhexan-3-yl]amino}-1H-pyrazolo[4,3-d]pyrimidin-1-yl)methyl]-N-(1-methylpiperidin-4-yl)quinoline-5-carboxamide]: the EC50 in the assay with CD69 was 153 nM; at human TLR7, 267 nM.

Take `CCC[C@@H](CCO)Nc1nc(N)nc2cnn(Cc3ccc(C(=O)N4CC(O)C4)c4cccnc34)c12` [Compound 135, 1-{8-[(5-amino-7-{[(3S)-1-hydroxyhexan-3-yl]amino}-1H-pyrazolo[4,3-d]pyrimidin-1-yl)methyl]quinoline-5-carbonyl}azetidin-3-ol]: the results for the EC50 with CD69 and at human TLR7 were 80.1 nM and 126 nM, respectively.

With `CCC[C@@H](CCO)Nc1nc(N)nc2cnn(Cc3ccc(C(=O)NC4CCOCC4)c4cccnc34)c12` [Compound 114, 8-[(5-amino-7-{[(3S)-1-hydroxyhexan-3-yl]amino}-1H-pyrazolo[4,3-d]pyrimidin-1-yl)methyl]-N-(oxan-4-yl)quinoline-5-carboxamide], the EC50 in the assay on CD69 was 369 nM; at human TLR7, 75.2 nM.

In the case of `CCC[C@@H](CCO)Nc1nc(N)nc2c(C)nn(Cc3ccc(C(=O)NC4CCOCC4)c4cccnc34)c12` [Compound 119, 8-[(5-amino-7-{[(3S)-1-hydroxyhexan-3-yl]amino}-3-methyl-1H-pyrazolo[4,3-d]pyrimidin-1-yl)methyl]-N-(oxan-4-yl)quinoline-5-carboxamide], the values for the EC50 in the assay on CD69 and at human TLR7 were 1000 nM and 606 nM, respectively.

Turning to `CCC[C@@H](CCO)Nc1nc(N)nc2cnn(Cc3ccc(CN4CC(O)C4)c4cccnc34)c12` [Compound 105, 1-({8-[(5-amino-7-{[(3S)-1-hydroxyhexan-3-yl]amino}-1H-pyrazolo[4,3-d]pyrimidin-1-yl)methyl]quinolin-5-yl}methyl)azetidin-3-ol], the figures for the EC50 in the assay with CD69 and at human TLR7 were 13.8 nM and 49.4 nM, respectively.

Take `CCC[C@@H](CCO)Nc1nc(N)nc2cnn(Cc3ccc(C(=O)N4CCN(CCO)CC4)c4cccnc34)c12` [Compound 111, (3S)-3-{[5-amino-1-({5-[4-(2-hydroxyethyl)piperazine-1-carbonyl]quinolin-8-yl}methyl)-1H-pyrazolo[4,3-d]pyrimidin-7-yl]amino}hexan-1-ol]: the EC50 with CD69 is 57.7 nM; at human TLR7 it was 66 nM.

Take `CCC[C@@H](CCO)Nc1nc(N)nc2cnn(Cc3ccc(C(=O)NCCN)c4cccnc34)c12` [Compound 133, 8-[(5-amino-7-{[(3S)-1-hydroxyhexan-3-yl]amino}-1H-pyrazolo[4,3-d]pyrimidin-1-yl)methyl]-N-(2-aminoethyl)quinoline-5-carboxamide]: the values for the EC50 in the assay with CD69 and at human TLR7 were 593 nM and 409 nM, respectively.

For the compound `CCC[C@@H](CCO)Nc1nc(N)nc2cnn(Cc3ccc(CN4CC(OC)C4)c4cccnc34)c12` [Compound 102, (3S)-3-{[5-amino-1-({5-[(3-methoxyazetidin-1-yl)methyl]quinolin-8-yl}methyl)-1H-pyrazolo[4,3-d]pyrimidin-7-yl]amino}hexan-1-ol], the EC50 in the assay on CD69 was 12.2 nM; at human TLR7, 30.8 nM.

The values above are taken from US12485123B2, “1H-pyrazolo[4,3-d]pyrimidine compounds as toll-like receptor 7 (TLR7) agonists” (BRISTOL-MYERS SQUIBB COMPANY, priority 2020, dated 2025).
